# In patent publication US20240409585A1, “MACROCYCLIC IMMUNOMODULATORS” (priority 2021, published 2024):
# Numbered stars: 1 amine (or outer) side, 2 acyl side, 3 side chain; on linkers, the order of the positions; unused ones are H or OH. Bridge positions count the residues as written; N and C are the ends. Square brackets hold non-standard residues; d marks the D form. Peptide text beside a SMILES is read from it. * marks the point of attachment. ξ: configuration not given here. Ala(Nα-(CH2)3NH) = C[C@@H](C(=O)[*:2])N(CCCN[*:3])[*:1]; Ala(morpholin-4-yl) = N[C@@H](CN1CCOCC1)C(=O)O; Phe(4-COOH) = N[C@@H](Cc1ccc(C(=O)O)cc1)C(=O)O; Bip = N[C@@H](Cc1ccc(-c2ccccc2)cc1)C(=O)O; Phe(3-Me) = Cc1cccc(C[C@H](N)C(=O)O)c1; Val(3-OH) = CC(C)(O)[C@H](N)C(=O)O; 3Pal = N[C@@H](Cc1cccnc1)C(=O)O; 3Thi = N[C@@H](Cc1ccsc1)C(=O)O; Cha = N[C@@H](CC1CCCCC1)C(=O)O; Cit = NC(=O)NCCC[C@H](N)C(=O)O; aThr = C[C@H](O)[C@H](N)C(=O)O; Thr(3ξ) = CC(O)[C@H](N)C(=O)O; Carboxymethyl = O=C(O)C*; NMeA = CN[C@@H](C)C(=O)O; Orn = NCCC[C@H](N)C(=O)O; Dab = NCC[C@H](N)C(=O)O; ξDab = NCCC(N)C(=O)O
# Molecular target: T1, PE-labeled human PD-L1-Ig binding to Jurkat cell line over-expressing human PD-1 (Jurkat-PD-1) (Homo sapiens, UniProt Q15116)
# T1 construct: expressed in transfected cells; host or cells: Jurkat
# Assay: Jurkat-PD-1 Cell Binding High-Content Screening Assay (CBA): Method 1
# Conditions: Jurkat-hPD-1 cells, PE-labeled PD-L1-Ig 20 nM final; read-out: Jurkat HPDL1 PD1 IC50 (uM) (Method 1)
# T1 sequence (Q15116 25-288): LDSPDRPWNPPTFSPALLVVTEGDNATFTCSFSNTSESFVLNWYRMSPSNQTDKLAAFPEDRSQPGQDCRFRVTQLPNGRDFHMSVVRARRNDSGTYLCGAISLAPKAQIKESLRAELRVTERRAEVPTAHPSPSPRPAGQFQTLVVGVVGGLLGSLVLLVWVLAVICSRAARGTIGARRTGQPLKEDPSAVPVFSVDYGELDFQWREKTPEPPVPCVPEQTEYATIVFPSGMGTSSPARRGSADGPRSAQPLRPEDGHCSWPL
row,SMILES,IC50 [µM]
1,CC(C)C[C@@H]1NC(=O)[C@H](Cc2c[nH]c3ccccc23)NC(=O)[C@H](CC(=O)O)NC(=O)[C@H](Cc2ccc(OCC(=O)O)cc2)NC(=O)[C@H](Cc2ccccc2)NC(=O)CSC[C@@H](C(N)=O)NC(=O)[C@H](CO)NC(=O)[C@H](C(C)C)NC(=O)[C@H](CC(C)C)NC(=O)[C@H](CC(N)=O)NC(=O)[C@@H](CC(C)C)NC(=O)[C@H](C)N(C)C(=O)[C@H](CCC(=O)O)NC(=O)[C@H](Cc2ccc(-c3ccccc3)cc2)NC1=O [Compound 1628] ({CH2CO}-FY(Carboxymethyl)DWL[Bip]E[NMeA][dL]NLVSC-NH2; thioether N-14),0.09
2,Cc1cccc(C[C@@H]2NC(=O)[C@H](CC(=O)O)NC(=O)[C@H](Cc3ccc(OCC(=O)O)cc3)NC(=O)[C@H](CCCNC(=N)N)NC(=O)CSC[C@@H](C(N)=O)NC(=O)[C@H]([C@@H](C)O)NC(=O)[C@H](C(C)C)NC(=O)[C@H](CC3CCCCC3)NC(=O)[C@H](CCN)NC(=O)[C@@H](CC(C)C)NC(=O)[C@H](C)N(C)C(=O)[C@H](CCCN)NC(=O)[C@H](Cc3ccc(-c4ccccc4)cc3)NC(=O)[C@H](Cc3ccc(O)cc3)NC2=O)c1 [Compound 1868] ({CH2CO}-RY(Carboxymethyl)D[Phe(3-Me)]Y[Bip][Orn][NMeA][dL][Dab][Cha]VTC-NH2; thioether N-14),0.17
3,CC(C)C[C@@H]1NC(=O)[C@H](CCN)NC(=O)[C@@H](CC(C)C)NC(=O)[C@H](C)N(CCCN)C(=O)[C@H](CCCNC(=N)N)NC(=O)[C@H](Cc2ccc(-c3ccccc3)cc2)NC(=O)[C@H](C(C)C)NC(=O)[C@H](Cc2c[nH]c3ccccc23)NC(=O)[C@H](CC(=O)O)NC(=O)[C@H](Cc2ccc(O)cc2)NC(=O)[C@H](CC(N)=O)NC(=O)CSC[C@@H](C(=O)N[C@@H](C)C(N)=O)NC(=O)[C@H]([C@@H](C)O)NC(=O)[C@H](C(C)C)NC1=O [Compound 1209] ({CH2CO}-NYDWV[Bip]R[Ala(Nα-(CH2)3NH)][dL][Dab]LVTCA-NH2; thioether N-14),0.14
4,CC(C)C[C@@H]1NC(=O)[C@H](CCCNC(=N)N)NC(=O)[C@@H](CC(C)C)NC(=O)[C@H](C)N(C)C(=O)[C@H](CCCNC(=N)N)NC(=O)[C@H](Cc2ccc(-c3ccccc3)cc2)NC(=O)[C@H](C(C)C)NC(=O)[C@H](Cc2c[nH]c3ccccc23)NC(=O)[C@H](CC(=O)O)NC(=O)[C@H](Cc2ccc(OCC(=O)O)cc2)NC(=O)[C@H](Cc2ccccc2)NC(=O)CSC[C@@H](C(=O)N[C@@H](C)C(N)=O)NC(=O)[C@H]([C@@H](C)O)NC(=O)[C@H](C(C)C)NC1=O [Compound 1094] ({CH2CO}-FY(Carboxymethyl)DWV[Bip]R[NMeA][dL]RLVTCA-NH2; thioether N-14),0.77
5,CC(C)C[C@@H]1NC(=O)[C@H](CCN)NC(=O)[C@@H](CC(C)C)NC(=O)[C@H](C)N(C)C(=O)[C@H](CCCNC(=N)N)NC(=O)[C@H](Cc2ccc(-c3ccccc3)cc2)NC(=O)[C@H](C(C)C)NC(=O)[C@H](Cc2c[nH]c3ccccc23)NC(=O)[C@H](CC(N)=O)NC(=O)[C@H](Cc2ccc(O)cc2)NC(=O)[C@H](CC(N)=O)NC(=O)CSC[C@@H](C(=O)N[C@@H](C)C(N)=O)NC(=O)[C@H]([C@@H](C)O)NC(=O)[C@H](C(C)C)NC1=O [Compound 1186] ({CH2CO}-NYNWV[Bip]R[NMeA][dL][Dab]LVTCA-NH2; thioether N-14),0.93
6,CC(C)C[C@@H]1NC(=O)[C@H](CCCN)NC(=O)[C@@H](CC(C)C)NC(=O)[C@H](C)N(C)C(=O)[C@H](CCCNC(=N)N)NC(=O)[C@H](Cc2ccc(-c3ccccc3)cc2)NC(=O)[C@H](C(C)C)NC(=O)[C@H](Cc2c[nH]c3ccccc23)NC(=O)[C@H](CC(=O)O)NC(=O)[C@H](Cc2ccc(O)cc2)NC(=O)[C@H](Cc2cnc[nH]2)NC(=O)CSC[C@@H](C(=O)N[C@@H](C)C(N)=O)NC(=O)[C@H]([C@@H](C)O)NC(=O)[C@H](C(C)C)NC1=O [Compound 1144] ({CH2CO}-HYDWV[Bip]R[NMeA][dL][Orn]LVTCA-NH2; thioether N-14),0.05
7,CC(C)C[C@H]1NC(=O)[C@H](C)N(C)C(=O)[C@H](CCCNC(=N)N)NC(=O)[C@H](Cc2ccc(-c3ccccc3)cc2)NC(=O)[C@H](C(C)C)NC(=O)[C@H](Cc2c[nH]c3ccccc23)NC(=O)[C@H](CC(=O)O)NC(=O)[C@H](Cc2ccc(O)cc2)NC(=O)[C@H](CC(N)=O)NC(=O)CSC[C@@H](C(=O)N[C@@H](C)C(N)=O)NC(=O)[C@H]([C@@H](C)O)NC(=O)[C@H](C(C)C)NC(=O)[C@H](CC2CCCCC2)NC(=O)[C@H](CCCNC(=N)N)NC1=O [Compound 1275] ({CH2CO}-NYDWV[Bip]R[NMeA][dL]R[Cha]VTCA-NH2; thioether N-14),0.03

# The remaining lines, values ahead:
row,IC50 [µM],SMILES
1,0.02,CC(C)C[C@@H]1NC(=O)[C@H](CCN)NC(=O)[C@@H](CC(C)C)NC(=O)[C@H](C)N(C)C(=O)[C@H](CCCNC(N)=O)NC(=O)[C@H](Cc2ccc(-c3ccccc3)cc2)NC(=O)[C@H](C(C)C)NC(=O)[C@H](Cc2c[nH]c3ccccc23)NC(=O)[C@H](CC(=O)O)NC(=O)[C@H](Cc2cccnc2)NC(=O)[C@H](CC(N)=O)NC(=O)CSC[C@@H](C(=O)N[C@@H](C)C(N)=O)NC(=O)[C@H]([C@@H](C)O)NC(=O)[C@H](C(C)C)NC1=O [Compound 1318] ({CH2CO}-N[3Pal]DWV[Bip][Cit][NMeA][dL][Dab]LVTCA-NH2; thioether N-14)
2,0.02,CC(C)C[C@@H]1NC(=O)[C@H](CC(N)=O)NC(=O)[C@@H](CC(C)C)NC(=O)[C@H](C)N(C)C(=O)[C@H](CCCNC(=N)N)NC(=O)[C@H](Cc2ccc(-c3ccccc3)cc2)NC(=O)[C@H](C(C)C)NC(=O)[C@H](Cc2c[nH]c3ccccc23)NC(=O)[C@H](CC(=O)O)NC(=O)[C@H](Cc2ccc(O)cc2)NC(=O)[C@H](Cc2ccccc2)NC(=O)CSC[C@@H](C(=O)N[C@@H](C)C(N)=O)NC(=O)[C@H](CO)NC(=O)[C@H](C(C)C)NC1=O [Compound 1742] ({CH2CO}-FYDWV[Bip]R[NMeA][dL]NLVSCA-NH2; thioether N-14)
3,0.01,Cc1cccc(C[C@@H]2NC(=O)[C@H](CC(=O)O)NC(=O)[C@H](Cc3ccc(OCC(=O)O)cc3)NC(=O)[C@H](CN3CCOCC3)NC(=O)CSC[C@@H](C(=O)NC(CCN)C(N)=O)NC(=O)[C@H](CCCN)NC(=O)[C@H](C(C)C)NC(=O)[C@H](Cc3cccc(C)c3)NC(=O)[C@H](CCN)NC(=O)[C@@H](CC(C)C)NC(=O)[C@H](C)N(C)C(=O)[C@H](CCC(N)=O)NC(=O)[C@H](Cc3ccc(-c4ccccc4)cc3)NC(=O)[C@H](Cc3ccc(C(=O)O)cc3)NC2=O)c1 (stereo partly drawn) [Example 2298] ({CH2CO}-[Ala(morpholin-4-yl)]Y(Carboxymethyl)D[Phe(3-Me)][Phe(4-COOH)][Bip]Q[NMeA][dL][Dab][Phe(3-Me)]V[Orn]C[ξDab]-NH2; thioether N-14)
4,0.01,Cc1cccc(C[C@@H]2NC(=O)[C@H](CC(=O)O)NC(=O)[C@H](Cc3ccc(OCC(=O)O)cc3)NC(=O)[C@H](Cc3ccc(OCC(=O)O)cc3)NC(=O)CSC[C@@H](C(=O)N[C@@H](C)C(N)=O)NC(=O)[C@H]([C@H](C)O)NC(=O)[C@H](C(C)C)NC(=O)[C@H](CC(C)C)NC(=O)[C@H](CCN)NC(=O)[C@@H](CC(C)C)NC(=O)[C@H](C)N(C)C(=O)[C@H](C(C)C)NC(=O)[C@H](Cc3ccc(-c4ccccc4)cc3)NC(=O)[C@H](C(C)C)NC2=O)c1 [Compound 1578] ({CH2CO}-Y(Carboxymethyl)Y(Carboxymethyl)D[Phe(3-Me)]V[Bip]V[NMeA][dL][Dab]LV[aThr]CA-NH2; thioether N-14)
5,0.01,Cc1cccc(C[C@@H]2NC(=O)[C@H](CC(=O)O)NC(=O)[C@H](Cc3ccc(OCC(=O)O)cc3)NC(=O)[C@H](Cc3ccc(OCC(=O)O)cc3)NC(=O)CSC[C@@H](C(=O)N[C@@H](C)C(N)=O)NC(=O)[C@H](CO)NC(=O)[C@H](C(C)C)NC(=O)[C@H](CC(C)C)NC(=O)[C@H](CC(N)=O)NC(=O)[C@@H](C)NC(=O)[C@H](C)N(C)C(=O)[C@H](C(C)C)NC(=O)[C@H](Cc3ccc(-c4ccccc4)cc3)NC(=O)[C@H](CC(C)C)NC2=O)c1 [Compound 1580] ({CH2CO}-Y(Carboxymethyl)Y(Carboxymethyl)D[Phe(3-Me)]L[Bip]V[NMeA][dA]NLVSCA-NH2; thioether N-14)
6,0.03,Cc1cccc(C[C@@H]2NC(=O)[C@H](CC(=O)O)NC(=O)[C@H](Cc3ccc(O)cc3)NC(=O)[C@H](CC(N)=O)NC(=O)CSC[C@@H](C(=O)N[C@@H](CCN)C(N)=O)NC(=O)[C@H]([C@@H](C)O)NC(=O)[C@H](C(C)(C)O)NC(=O)[C@H](CC3CCCCC3)NC(=O)[C@H](CCN)NC(=O)[C@@H](CC(C)C)NC(=O)[C@H](C)N(C)C(=O)[C@H](CCCNC(N)=O)NC(=O)[C@H](Cc3ccc(-c4ccccc4)cc3)NC(=O)[C@H](C(C)(C)O)NC2=O)c1 [Compound 1705] ({CH2CO}-NYD[Phe(3-Me)][Val(3-OH)][Bip][Cit][NMeA][dL][Dab][Cha][Val(3-OH)]TC[Dab]-NH2; thioether N-14)
7,0.03,CC(C)C[C@H]1NC(=O)[C@H](C)N(C)C(=O)[C@H](Cc2ccc(OCC(=O)O)cc2)NC(=O)[C@H](Cc2ccc(-c3ccccc3)cc2)NC(=O)[C@H](Cc2ccc(C(=O)O)cc2)NC(=O)[C@H](Cc2c[nH]c3ccccc23)NC(=O)[C@H](CC(=O)O)NC(=O)[C@H](Cc2ccc(OCC(=O)O)cc2)NC(=O)[C@H](Cc2ccsc2)NC(=O)CSC[C@@H](C(=O)N[C@@H](CCN)C(N)=O)NC(=O)[C@H](CO)NC(=O)[C@H](C(C)(C)O)NC(=O)[C@H](CC2CCCCC2)NC(=O)[C@H](CCN)NC1=O [Compound 2130] ({CH2CO}-[3Thi]Y(Carboxymethyl)DW[Phe(4-COOH)][Bip]Y(Carboxymethyl)[NMeA][dL][Dab][Cha][Val(3-OH)]SC[Dab]-NH2; thioether N-14)
8,0.01,Cc1cccc(C[C@@H]2NC(=O)[C@H](CC(=O)O)NC(=O)[C@H](Cc3ccc(OCC(=O)O)cc3)NC(=O)[C@H](C(C)O)NC(=O)CSC[C@@H](C(=O)N[C@@H](CCN)C(N)=O)NC(=O)[C@H](CO)NC(=O)[C@H](C(C)(C)O)NC(=O)[C@H](CC3CCCCC3)NC(=O)[C@H](CCN)NC(=O)[C@@H](CC(C)C)NC(=O)[C@H](C)N(C)C(=O)[C@H](Cc3ccc(C(=O)O)cc3)NC(=O)[C@H](Cc3ccc(-c4ccccc4)cc3)NC(=O)[C@H](Cc3ccc(C(=O)O)cc3)NC2=O)c1 (stereo partly drawn) [Compound 2152] ({CH2CO}-[Thr(3ξ)]Y(Carboxymethyl)D[Phe(3-Me)][Phe(4-COOH)][Bip][Phe(4-COOH)][NMeA][dL][Dab][Cha][Val(3-OH)]SC[Dab]-NH2; thioether N-14)
